Legend:
Tobacco callus = test: Daily growth, cell number and frequency of mitosis of tobacco callus (Example 13); assay type: cell-based; settings: for Cell number/g / Daily growth: 10 ppm active agent, 3 weeks
Description: An untreated culture medium served as control. Tobacco callus was grown on the treated and untreated culture media (incubation period: 3 weeks), and the daily growth, the increase in cell number and the frequency of mitosis were measured according to the method of Skoog.

[1] = tested on: callus isolated from Datura innoxia Mill. roots; test: Growth of callus isolated from Datura innoxia Mill. roots (Example 15); assay type: cell-based; settings: for percentage growth promoting effect: control = 100, 30240 min
Pinto beans = test: Preservation of chlorophyll in Pinto beans (Example 17); assay type: in vivo; settings: zeatin 20 ppm, kinetin/benzyladenine 30 ppm, others 200 ppm; for Extinction: 665 mμ, 200 mg fresh weight, 2 weeks
Description: Endogeneous and synthetic cytokinins were applied as comparative substances. Solutions with varying concentrations, but always more dilute than 10^-4 moles, were applied in the tests.
The tests were performed on Pinto beans. The plants were treated with an endogenous cytokinin (zeatine), synthetic cytokinins (kinetin, benzyladenine) or cytokinin-like compounds, respectively, and the chlorophyll content of the leaves was determined 2 weeks after the treatment by measuring the extinction of the extract of the leaves at 665 mμ.

leaves of Pinto bean = test: Protein synthesis, glycine-2-14C incorporation in Pinto bean leaves (Example 19); settings: 18 hours, zeatin 20 ppm, kinetin/benzyladenine 30 ppm, others 200 ppm
Description: The tests were performed on leaves of Pinto bean. The leaf segments were treated with an endogeneous cytokinin (zeatin), synthetic cytokinins (kinetin, benzyladenine) or with the compositions according to the invention, respectively, by floating the leaf segments on the solution of the test substance for 18 hours. Thereafter the leaf segments were exposed to a labelled amino acid (glycine-2-^14 C) for 3 hours, and the incorporation of the amino acid was determined by radiometry.

leaves of Pinto beans = test: Stimulation of carbon dioxide fixation, Pinto beans (Example 21); settings: zeatin 20, kinetin/benzyladenine 30, others 200 ppm; for Radioactivity A: A = in the light, control 2.14; for Radioactivity B: B = in the dark, control 0.18; for Radioactivity C: C = photosynthetic, control 2.32
Description: The tests were performed on leaves of Pinto beans. The leaf segments were treated with an endogeneous cytokinin (zeatin), synthetic cytokinins (kinetin, benzyladenine) or with the compositions according to the invention, respectively, by floating the leaf segments on the solution of the test substance for 18 hours, thereafter the leaf segments were exposed to labelled carbon dioxide (activity: 100 μCi/5000 ml of ^14 CO2) for 0.5 hours.

green parts of maize = test: Stimulation of plant photolysis, HTO, maize (Example 22); settings: 2 hours; for Radioactivity: 500 ppm, control 4.64
Description: The compositions according to the invention were diluted with distilled water to an active agent content of 500 ppm, and green parts of maize, weighing 200 mg, were treated with the resulting solutions for 2 hours. Thereafter the treated green plant parts were treated for one hour with 10 μCi/50 ml HTO, then the plant parts were frozen with liquid nitorgen, triturated, subjected to chromatographic separation, and the radioactivity of the isolated glycerol aldehyde was determined.
In the control test the green parts of maize were treated with distilled water only.

Maize = test: Stimulation of nutrient uptake, labelled phosphate, maize (Example 24); settings: for labelled phosphate in nucleic acid fraction: 200 ppm, control 31.2
Description: The compositions according to the invention were diluted with distilled water to an active agent concentration of 200 ppm, and leaf segments of wheat, maize and pea, weighing 200 mg each, were treated with the solutions. Thereafter the treated green leaf segments were treated for 0.5 hours with a solution of labelled phosphate ions (radioactivity: 30 μCi/50 ml). After this exposition period the treated leaf segments and the untreated controls were processed in a manner known per se to isolate the nucleic acid fractions, and the isolated nucleic acid fractions were dissolved in 6 n ammonium hydroxide solution. Stock solutions were prepared from the resulting solutions, and the amount of labelled phosphate ions present in the stock solutions were measured by liquid scintillation.

maize for silage = test: Green weight and nitrogen content of maize for silage (Example 28); assay type: in vivo; settings: for Green weight: 2 kg/ha to soil, 200 m^2 parcels, control 365; for Total nitrogen content, absolute: control 0.30; for Real protein content, absolute: control 1.35; for Crude proteins, absolute: control 1.85; for Total carbon content, absolute: control 8.99; for Air-dry substance, absolute: control 20.57
Description: The tests were performed on parcels 200 m^2 in area. The compositions according to the invention were utilized as solid formulations, and were diluted with water prior to applying them onto the soil. The active agent was applied to the soil in an amount of 2 kg/ha directly before sowing. The green weight of the maize for silage, harvested from the treated and control parcels, was measured, and the dry substance content, crude protein content, real protein content, nitrogen content and carbon content of the green plants were determined.

hybrid maize = test: Grain yield of maize (Example 29); assay type: in vivo; settings: for Grain yield, increase: in vivo; for Grain yield: seed dressing 0.5 kg/ha + sprays 3, 1, 2 kg/ha, control 132.8
Description: The compositions according to the invention were applied as seed dressing agents onto the sowing-seeds of hybrid maize in a dosis of 0.5 kg/ha. The powdery compositions were wetted with water prior to application. The stand was sprayed three times during the cultivation period: first at the four-leaves development stage with a dosis of 3 kg/ha, then prior to tasseling with a dosis of 1 kg/ha, and finally prior to pollen ripening with a dosis of 2 kg/ha. The crop was evaluated as May shelled corn.

Soybean = test: Grain yield of soybean (Example 30); assay type: in vivo; settings: 3 x 2 kg/ha; for Grain yield: control 29.53
Description: Soybean cultures were sprayed three times with the compositions according to the invention. The active agents were applied in a dosis of 2 kg/ha, in all of the treatments. The stand was sprayed first at the beginning of flowering, then at the flowering of the apical cluster, and finally two weeks after the second treatment.
The grain yield of soybean, harvested from the treated and control parcels, was measured.

[2] = tested on: Edible beans (Superelite variety); test: Crop yield of edible beans (Example 35); assay type: in vivo; settings: for Crop yield: control 15.00
Source text: Edible beans (Superelite variety) were sprayed once or twice with the compositions according to the invention.
From the data of Table 29 conclusions can be drawn for the correlation between the development stage of the stand at treatment and the effect of the treatment.

[3] = 2 treatments, 06.20.1979 and 07.06.1979

CCC[n+]1c[nH]c2ccccc21.[Br-] [N--(n-Propyl)-benzimidazolium bromide, N-(n-propyl)-benzimidazolium bromide]
Cell number/g (Tobacco callus): 327.5 10^4 units
Daily growth (Tobacco callus): 22.8 mg
Dry substance ([1]; with kinetin (2 ppm)): 3.17%
Dry weight of the callus ([1]; with kinetin (2 ppm)): 209.13 mg
Fresh weight of the callus ([1]; with kinetin (2 ppm)): 6.5772 g
Growth, dry weight ([1]; with kinetin (2 ppm)): 18.78
Growth, fresh weight ([1]; with kinetin (2 ppm)): 20.92
Speed of growth ([1]; with kinetin (2 ppm)): 128.10 mg/day
percentage growth promoting effect ([1]; with kinetin): 134%
Dry substance ([1]; without kinetin): 7.07%
Dry weight of the callus ([1]; without kinetin): 43.29 mg
Fresh weight of the callus ([1]; without kinetin): 0.6120 g
Growth, dry weight ([1]; without kinetin): 3.09
Growth, fresh weight ([1]; without kinetin): 1.04
Speed of growth ([1]; without kinetin): 6.36 mg/day
percentage growth promoting effect ([1]; without kinetin): 322%
Extinction (Pinto beans): 1.081
Promotion (Pinto beans): 61.2%
Stimulation (leaves of Pinto bean): 42.7%
Radioactivity of the TCA-insoluble fraction (leaves of Pinto bean; control 3.17): 4.52 1000 dpm/200 mg fresh weight
Radioactivity A (leaves of Pinto beans): 3.92 dpm/200 mg fresh weight
Radioactivity B (leaves of Pinto beans): 0.34 dpm/200 mg fresh weight
Radioactivity C (leaves of Pinto beans): 4.26 dpm/200 mg fresh weight
Stimulation (leaves of Pinto beans): 84.0%
Radioactivity (green parts of maize): 8.76 dpm/mg dry weight
labelled phosphate in nucleic acid fraction (Maize): 39.3 1000 cpm/g
Air-dry substance, relative (maize for silage; 2 kg/ha): 14.10%
Crude proteins, relative (maize for silage; 2 kg/ha): 21.7%
Real protein content, relative (maize for silage; 2 kg/ha): 4.4%
Green weight (maize for silage): 389 kg
Total nitrogen content, absolute (maize for silage; 2 kg/ha): 0.86%
Real protein content, absolute (maize for silage; 2 kg/ha): 1.4%
Crude proteins, absolute (maize for silage; 2 kg/ha): 2.25%
Total carbon content, absolute (maize for silage; 2 kg/ha): 10.27%
Air-dry substance, absolute (maize for silage; 2 kg/ha): 23.48%
Carbon/nitrogen ratio (maize for silage; 2 kg/ha, control 30.86): 28.67
Grain yield, increase (hybrid maize): 12.4%
Grain yield (hybrid maize): 149.3 q/ha
Grain yield, increase (Soybean): 30%
Grain yield (Soybean): 38.67 q/ha
Crop yield, increase ([2]; 1 treatment, 06.20.1979): 18.4%
Crop yield ([2]; 1 treatment, 06.20.1979): 17.77 q/ha
Crop yield, increase ([2]; 1 treatment, 07.06.1979): 13.5%
Crop yield ([2]; 1 treatment, 07.06.1979): 17.03 q/ha
Crop yield, increase [2, 3]: 30.1%
Crop yield [2, 3]: 19.52 q/ha

N=C(N)N.N=C(N)N.Oc1nnc(O)c2ccccc12 [1,4-dihydroxyphthalazine diguanidine salt]
Cell number/g (Tobacco callus): 266.0 10^4 units
Daily growth (Tobacco callus): 19.3 mg
activity at 10 ppm (Tobacco callus; Nicotiana tabacum, 504 h, 10 ppm, untreated control = 100): 117%
Dry substance ([1]; with kinetin (2 ppm)): 3.53%
Dry weight of the callus ([1]; with kinetin (2 ppm)): 269.07 mg
Fresh weight of the callus ([1]; with kinetin (2 ppm)): 7.6110 g
Growth, dry weight ([1]; with kinetin (2 ppm)): 24.46
Growth, fresh weight ([1]; with kinetin (2 ppm)): 24.37
Speed of growth ([1]; with kinetin (2 ppm)): 149.20 mg/day
percentage growth promoting effect ([1]; with kinetin): 156%
Dry substance ([1]; without kinetin): 7.14%
Dry weight of the callus ([1]; without kinetin): 66.11 mg
Fresh weight of the callus ([1]; without kinetin): 0.9258 g
Growth, dry weight ([1]; without kinetin): 5.25
Growth, fresh weight ([1]; without kinetin): 2.08
Speed of growth ([1]; without kinetin): 12.77 mg/day
percentage growth promoting effect ([1]; without kinetin): 648%
Extinction (Pinto beans): 0.985
Promotion (Pinto beans): 46.8%
Stimulation (leaves of Pinto bean): 39.0%
Radioactivity A (leaves of Pinto beans): 3.38 dpm/200 mg fresh weight
Radioactivity B (leaves of Pinto beans): 0.31 dpm/200 mg fresh weight
Radioactivity C (leaves of Pinto beans): 3.69 dpm/200 mg fresh weight
Stimulation (leaves of Pinto beans): 59.3%
Radioactivity (green parts of maize): 11.42 dpm/mg dry weight
activation at 500 ppm (green parts of maize; Zea mays): 146%
labelled phosphate in nucleic acid fraction (Maize): 47.0 1000 cpm/g
activation at 200 ppm (Maize; Zea mays): 50.6%
Green weight (maize for silage): 374 kg
Total nitrogen content, absolute (maize for silage; 2 kg/ha): 0.40%
Real protein content, absolute (maize for silage; 2 kg/ha): 1.71%
Crude proteins, absolute (maize for silage; 2 kg/ha): 2.52%
Total carbon content, absolute (maize for silage; 2 kg/ha): 9.99%
Air-dry substance, absolute (maize for silage; 2 kg/ha): 22.79%
Grain yield, increase (hybrid maize): 37.0%
Grain yield (hybrid maize): 181.9 q/ha
Grain yield, increase (Soybean): 39%
Grain yield (Soybean): 41.22 q/ha
Crop yield, increase ([2]; 1 treatment, 07.06.1979): 18.4%
Crop yield ([2]; 1 treatment, 07.06.1979): 17.77 q/ha
